Measured values published in patent publication US10139394B2, “Method for controlling cancer metastasis or cancer cell migration by modulating the cellular level of lysyl tRNA synthetase” (Medicinal Bioconvergence Research Center, priority 2008, dated 2018).

Columns and labels:
A549 cells = experiment: Cell migration assay in Transwell chamber; type: cell-based; settings: purified KRS at different concentration in lower chamber, 6 hr, FIG. 25
Protocol: In FIG. 18, A549 cells were transfected with the indicated plasmids, incubated in the absence and presence of laminin and their effect on cell migration was determined by measuring the migrated cells in transwell chamber as described. The numbers of the cells passed through the membrane were counted and shown in each panel. The experiments were performed three times. In FIG. 19, the cells treated as above were used to determine MMP-2 activity and level by zymography and Western blotting, respectively. In FIG. 20, Breast carcinoma 4T-1 cells were transfected with the indicated siRNA and subcutaneously injected to the back of Balb/C mice. After 21 days, mouse lungs were isolated and tumor nodules over 1 mm in diameter were counted. In FIG. 21, two different 4T-1 cells stably expressing exogenously introduced KRS (KRS-1 and -2) were also inoculated as above and the tumor nodules were counted 30 days after injection. […]
FIGS. 24 to 27 show effect of intracellular and extracellular KRS on cell migration, protein synthesis and cell cycle. In FIG. 24, Migration of A549 cells incubated in the absence of laminin was determined was determined by measuring the migrated cells in Transwell chamber. […] After 6 hr of incubation, the migrant were counted. […] In FIG. 27, A549 cells transfected as indicated were fixed and stained with propidium iodide, and their cell cycle was determined by flow cytometry. […]

[1] = system: membrane translocation of KRS; experiment: Laminin-dependent membrane translocation of KRS and 67LR, cell fractionation and Western blotting; type: cell-based; settings: A549 cells; inhibitor for 3 hr, then laminin for 1 hr; FIG. 9 upper
Protocol: (§1) In FIG. 7, A549 cells were treated with laminin (10 ug/ml) and the level of 67LR, 37LRP and KRS was determined by Western blotting at the indicated times. Hsp90 and Cadherin were used as markers for cytoplasm and membrane, respectively. In FIG. 8, A549 cells untreated or treated with laminin for 1 h were subjected to immunofluorescence staining with anti-67LR (MLuC5, Santacruz, sc-59732) (red) and -KRS antibodies (green). In FIG. 9, A549 cells were treated with U73122 (U), staurosporin (ST) and LY294002 (LY) that inhibit PLC-gamma, PKC and PI3K, respectively, for 3 hr, then with laminin for 1 hr and checked how these kinase inhibitors would affect the membrane and cytoplasmic level of 67LR and KRS. In FIG. 10, A549 cells were transfected with Myc-KRS and incubated for 24 h. The cells were treated with the indicated chemicals and then with laminin as above. Myc-KRS was immunoprecipitated, and immunoblotted with anti-p-Thr, -Ser, and -Tyr antibodies. In FIG. 11, A549 cells were transfected with Myc-KRS and cultivated for 24 hr. The transfectants were pre-treated with LY294002 for 3 hr and then treated with laminin for 1 h. Myc-KRS was immunoprecipitated and co-precipitation of 67LR was determined by Western blotting. IgG was used as a control for immunoprecipitation. In FIG. 12, A549 cells were cultivated in the absence and presence of laminin and LY294002 as indicated. EPRS (glutamyl-prolyl-tRNA synthetase) was immunoprecipitated with its specific antibody (AbCam), and co-immunoprecipitation of KRS was determined by Western blotting (upper). The immune-depleted supernatant (ID) were subjected to Western blottingting with anti-KRS and -EPRS antibodies.
The cells were lysed with 20 mM Tris-HCl (pH 7.4) buffer containing 150 mM NaCl, 0.5% TritonX-100, 0.1% SDS, and protease inhibitor. The protein extracts were incubated with normal IgG and protein G agarose for 2 hr and then centrifuged to remove nonspecific IgG binding proteins. […]

phosphorylation of KRS = experiment: Laminin-induced phosphorylation of Myc-KRS, immunoprecipitation and immunoblot with anti-p-Thr, -Ser, -Tyr antibodies; type: cell-based, human; settings: Myc-KRS transfected A549 cells; FIG. 10
Protocol: as §1, with “IgG was used as a control for immunoprecipitation. In FIG. 12, A549 cells were cultivated in the absence and presence of laminin and LY294002 as indicated.” left out, “The immune-depleted supernatant (ID) were subjected to Western blottingting with anti-KRS and -EPRS antibodies.” left out

purified KRS: purified human lysyl-tRNA synthetase protein added extracellularly
cell migration (chemotactic activity of extracellular KRS) (A549 cells): little affected

CN[C@@H]1C[C@H]2O[C@@](C)([C@@H]1OC)n1c3ccccc3c3c4c(c5c6ccccc6n2c5c31)C(=O)NC4 [staurosporin, reference compound]
Laminin-dependent increase of KRS and 67LR in the membrane fraction [1]: still showed laminin-dependent induction of 67LRS
laminin-induced phosphorylated KRS at threonine and serine in presence of inhibitor (phosphorylation of KRS): did not give any effect

COc1ccc2c(c1)CC[C@@H]1[C@@H]2CC[C@]2(C)[C@@H](NCCCCCCN3C(=O)C=CC3=O)CC[C@@H]12 [U73122]
Laminin-dependent increase of KRS and 67LR in the membrane fraction [1]: still showed laminin-dependent induction of 67LRS
